SMILES | melting point
COC(=O)C=CC=CCS(=O)(=O)c1ccccc1 | 105 °C
COc1cc(SC)ccc1C(=O)c1cnoc1C1CC1 | 108 °C
NCCNc1nc2ccccc2n(-c2ccc(Cl)cc2)c1=O | 173 to 174 °C
CCOC(=O)C1CNc2ccc([N+](=O)[O-])cc2O1 (configuration not stated) | 130 to 132 °C
NCC1(O)c2ccccc2C=Cc2ccccc21 | 117 to 120 °C
COc1cccc(-c2c3cccc(OC(C)=O)c3c(OC(C)=O)c3c(OC(C)=O)cccc23)c1 | 278 °C
Cc1nc(N2CCN(CC(C)C)C2=O)sc1C(=O)NCc1cnn(C)c1 | 155 to 158 °C
CCOc1ccccc1COc1ccc2c(c1)C=C(C(=O)O)CCS2(=O)=O | 158 to 160 °C
Cc1nc(N)sc1-c1ccnc(CC2CC2)n1 | 198 to 200 °C
Cn1c(CC(=O)O)ccc1C(=O)c1cccs1 | 141 to 142 °C
Cn1nc(C#N)c(Nc2cc(Cl)c(Cl)cc2[N+](=O)[O-])n1 | 148 to 150 °C
Cc1oc(-c2ccccc2)nc1CCNCc1ccc(C[C@@H](C(=O)O)n2cccc2)cc1 | 208 to 210 °C
CC1CCCCC1NC(=O)[C@@H](C)NC(=O)[C@@H](N)CC(=O)O (some centres not stated) | 206 to 209 °C
CCOCc1nc2c(N)nc(C)c(C)c2n1CC(C)(C)O | 190 to 193 °C
O=C(Cc1cc(O)no1)OC(c1ccccc1)c1ccccc1 | 105 to 106 °C
COCCN1CCN(c2ccc(C(=O)NC3(C(=O)NCC#N)CCCCC3)cc2)CC1 | 166 to 168 °C
CCCCN(CCCC)C(=O)CC1(c2ccc(OCOC)cc2)NCC(c2ccc3c(c2)OCO3)C1C(=O)O (configuration not stated) | 48 to 49 °C
COc1ccc(Cl)cc1C(=O)NC(C)Cc1ccc(CCC(=O)O)cc1 (configuration not stated) | 125 to 126 °C
COc1cc(C(=O)N2CCC(CCN3CCC(C(=O)c4nc5ccccc5n4Cc4ccccn4)CC3)(c3ccc(Cl)c(Cl)c3)C2)cc(OC)c1OC (configuration not stated) | 110 to 115 °C
CC(C)(C)NC(=O)N1CCN(Cc2ccccc2)C[C@@H]1C(=O)NCCc1cncn1Cc1ccc(C#N)cc1 | 97.8 °C
O=c1[nH]c2ccccc2c2c(C(O)CC3CCNCC3)n(-c3ccccc3)nc12 (configuration not stated) | 258 to 261 °C
COc1ccc(C2CCCCC2)cc1-c1csc(NC(=O)N2CCN(C[C@@H]3CCCN(C4CC4)C3)CC2)n1 | 88 °C
[O-][N+]1=C(c2ccccc2)c2cc(C(F)(F)F)ccc2-n2c(CBr)nnc2C1 | 185 to 210 °C
CSc1ccc2c(n1)C(c1ccccc1)=[N+]([O-])Cc1nncn1-2 | 190 to 192 °C

SMILES | melting point
O=C(O)CCCCCOc1c(Cl)cc(NC(=O)NC(=O)c2ccccc2Cl)cc1Cl | 171 to 173 °C
O=C1NCCN1C(=O)N1CCOCC1 | 158 °C
COc1nc(C)c(C)nc1NC(=O)N1CCN(c2ccc(C(C)=O)cc2)CC1 | 166 to 168 °C
c1ccc(-c2ncc(-c3ccc4cc(OCc5nnn[nH]5)ccc4c3)o2)cc1 | 239 to 241 °C
CCOCc1nc2c(N)nc(C)c(C)c2n1CCCC(=O)N1CCOCC1 | 156 to 158 °C
Cc1cc(CO)cc(C#N)n1 | 136 to 138 °C
COc1ccccc1C(=O)c1noc(CC(N)=O)n1 | 149 to 150 °C
O=Cc1cc(Br)cc(Cc2cccnc2)c1 | 97 to 98 °C
O=C1c2ccccc2C(=O)N1CCCCn1ccnc1 | 75 to 77 °C
O[C@H]1CC[C@H](CN2CCC(=C3c4ccc(F)cc4Sc4ccc(C(F)(F)F)cc43)CC2)CC1 | 144 to 146 °C
CCOc1cccc(-c2nc3ccc(C(=O)O)cc3c(=O)[nH]2)c1OCC | > 320 °C
COc1cc(C(C)C)c2c(c1)S(=O)(=O)N(COc1cc(C(F)(F)F)nn1-c1ncccn1)C2=O | 133 to 134 °C
Cn1[nH]c(=O)n(-c2cc(F)c(C(=O)Cl)cc2F)c1=O | > 250 °C
CCCCCCCCCCCCCCCCCCOC(=O)COc1ccc(C2C(=O)Oc3c(C)cc(C)cc32)cc1 (configuration not stated) | 57 to 59 °C
Cc1cc2c(-c3cccc(C(F)(F)F)c3)nc(COCC(F)(F)F)nc2s1 | 40 to 41 °C
CCCCC[C@H]1CC[C@H](CCC2CCC(c3ccc(Oc4ccc(N)cc4)cc3)(c3ccc(Oc4ccc(N)cc4)cc3)CC2)CC1 | 171 to 172 °C
CCOc1ccc(S(=O)(=O)N2CCN(C)CC2)cc1C=O | 107 to 108 °C
Cc1ccc(S(=O)(=O)Oc2ccccc2-c2cc3c(C(N)=O)cccc3[nH]2)cc1 | 135 °C
CCSCc1ccc2[nH]c(NC(=O)OC)nc2c1 | 229 to 231 °C
CCCc1nc2c(N)nc3cc(C)ccc3c2s1 | 186 to 187 °C
O=C(Cc1ccc(Cl)cc1)c1ccc(Cl)cc1Cl | 65 to 66 °C
Nc1c2c(nc3ccccc13)C1CCC2C1 (configuration not stated) | 185 to 186 °C
CCOC(=O)c1c(CN(C)c2ccccn2)nc2cc(OC)c(OC)cc2c1-c1ccc(OC)c(OC)c1 | 174 to 175 °C
OC[C@@H](O)CCc1ccccc1 | 34 to 36 °C

SMILES | melting point
Cc1ccc2[nH]c3c(cc(-c4ccc(O)cc4)c(=O)n3C)c2c1 | 186 °C
COc1ccc(C2=C(/C=C/C(=O)Oc3ccc([N+](=O)[O-])cc3)CCc3cc(OC)ccc32)cc1 | 151 to 152 °C
COc1ccc2c(c1)c(=O)c(S(=O)(=O)N(C)C)cn2C | 199 to 201 °C
CN(C)c1cc(N2C(=O)C3=C(CCCC3)C2=O)ccc1Cl | 124 to 127 °C
CCOCc1nc2c(N)nc3c(c2n1CC1(OCCS(C)(=O)=O)CCC1)CCCC3 | 186 to 188 °C
Oc1c(Cl)cc(Cn2c(S)nc3ccccc32)cc1Cl | 246 °C
CC(C)(C)C(Cl)=NNc1ccc(Cl)cc1 | 42 to 43 °C
COCC(=O)N(c1c(C)cccc1C)C(CCO)C(=O)O (configuration not stated) | 150 to 152 °C
CCOC(=O)C=Cc1cn(C(=O)OC(C)(C)C)c2cnc(-n3cncn3)cc12 | 178 to 181 °C
N#CCc1cn2cccc(OCc3ccccc3)c2n1 | 148 to 150 °C
CCCCN1CC(=O)N2[C@@H](c3ccc(NS(C)(=O)=O)cc3)c3[nH]c4ccccc4c3C[C@@H]2C1=O (relative stereo) | 188 °C
N#Cc1cc([N+](=O)[O-])c(O)c(O)c1F | 154 °C
CNC(=O)c1cc2c(Oc3ccc(/C=C/C(=O)NCC(O)CO)cc3)cncc2s1 (configuration not stated) | 225 to 226 °C
Nc1c(C(=O)O)c(=O)[nH]c2cc(Cl)ccc12 | > 330 °C
Cn1ncnc1COc1nn2cnnc2cc1-c1ccsc1 | 220 to 222 °C
CCCc1nn(C)c2c(=O)n(CCCc3cccc(OC(C)(C)C(=O)O)c3)c(C)nc12 | 78 to 80 °C
COc1ccccc1CC(=O)N1C[C@@H]2[C@H](C1)[C@@](O)(c1ccccc1OC)[C@H](O)CC2(c1ccccc1)c1ccccc1 (racemic) | 278 °C
COc1cc2nc(C)c(CO)nc2cc1OC | 176 to 177 °C
COc1cc(C)c(C)cc1NC(=O)N1CCN(c2ccccc2)CC1 | 143 to 144 °C
O=S(=O)(CC=C1CCCCC1)c1ccccc1 | 70 °C
CCC1(O)CSC(=S)N1c1cccc(C)n1 (configuration not stated) | 118 °C
CSc1nc(SC)c2ccccc2n1 | 85 °C
OC1(c2ccc(Br)cc2)c2ccccc2C2=NCCN21 (configuration not stated) | 194 to 196 °C
CCc1nccn1CCCOCc1cccc(SC)c1NC(=O)CC1c2ccccc2Oc2ccccc21 | 159 to 160 °C
